The test system of data set [1] is apoptotic genes in MCF-7 cells. In words: Apoptosis-related gene expression, qRT-PCR. The data set is classed as cell-based, human. As to conditions: MCF-7, IC25 concentration, 24 h, relative to negative control. On the procedure:
(§1) A broad scope of molecular targets involved in the apoptotic pathway were selected for analysis using qRT-PCR including initiators, mediators and inhibitors. These gene targets along with their cellular location and associated primer set are outlined in Table 2. Primer sets for each gene were designed using NCBI nucleotide sequences and the Primer3 application (Table 3). Once designed, the primers were synthesised by Sigma Aldrich, Ireland.
(§2) MCF-7 and MCF-12A cells were seeded at a density of 1 × 10^5 in T25 flasks and incubated for 24 h allowing for attachment. Following incubation, the seeding media was removed, and the cells were washed with PBS. […] Post-exposure, RNA was isolated from the cells. Tri-reagent^Ⓡ (Sigma, Ireland) (Cat# T9424) was added to the cells followed by centrifugation at 300 g for 5 min. The RNA was precipitated using chloroform, followed by centrifugation and washing of the pellet using 75% ethanol. The RNA was resuspended in 30 μl of nuclease-free water. The RNA was either used immediately for qRT-PCR or stored at −80 ℃. The RNA from each sample was quantified using the NanoDrop™ 2000 Spectrophotometer (Thermo Fisher Scientific, Ireland). The A260/A230 ratio was measured to ensure the purity of each sample. Prior to cDNA synthesis, all samples were adjusted to a concentration of 100 ng. The RNA was then reverse transcribed into cDNA using the Quanta Biosciences Kit (Quanta Biosciences, USA) (Cat# 95047). Using the SimpliAmp Thermal Cycler (Applied Biosystems; Thermo Fisher Scientific, Ireland), the following settings were applied: 5 min at 22 ℃, 30 min at 42 ℃, 5 min at 85 ℃; samples were then maintained in an indefinite hold at 4 ℃ prior to being used for quantitative real-time PCR. The cDNA templates were amplified and analysed using SYBR™ Green (Fisher Scientific, UK) (Cat#10187094). Using the 7500 fast Real-Time PCR System (Applied Biosystems, USA), the following thermal cycling setting were applied for amplification: Pre-Incubation (1 cycle) 95 ℃, 5 Minutes, 4.4 ℃ ramp; Amplification (45 cycles) 95 °C 10 s ramp 4.4 °C, 60 °C 10 s ramp 2.2 °C, 72 °C 10 s ramp 4.4 °C; Melting Curve (1 cycle) 95 °C 5 s ramp 4.4 °C, 65 °C 1 min ramp 2.2 °C, 97 °C continuous ramp 0.11 °C acquisition 10 per °C; Cooling (1 cycle) 40 °C 10 s ramp 1.5 °C. Two reference genes, actin and tubulin, were employed to determine the expression of the target genes. No template controls were included to confirm the absence of template contamination and auto-fluorescence. Each PCR plate contained three technical replicates per sample and gene target, with each experiment repeated three independent times using three individual biological replicates.
(§3) qRT-PCR data was analysed by first using the Vandesompele method to calculate the geometric mean of Ct values for the reference genes, actin and tubulin. These values were used for normalisation of the target gene expression values which were then calculated using the Livak and Schmittgen formula: 2^−ΔCt1(test)−ΔCt2(control) (Livak and Schmittgen [2001]; Vandesompele et al. [2002]).
(§4) The expression profiles (Fig. 4) display the log(2) transformed mean expression value for each gene target relative to the negative control. Expression values for each target were determined relative to the geometric means of reference genes. […] Each graph contains a threshold line, set at the value of one, this represents baseline expression levels of genes.

The test system of data set [2] is apoptotic genes in MCF-12A cells. Description: Apoptosis-related gene expression, qRT-PCR. The data set is classed as cell-based, human. As to conditions: IC25 concentration, 24 h, relative to negative control. The protocol: as §1, §2, §3, §4
The test system of data set [3] is caspase-3/7 in MCF-7 cells. Description: Caspase 3/7 expression, FLICA (FAM-DEVD-FMK) flow cytometry. It is filed as cell-based, human. As to conditions: MCF-7, IC25 concentration, 24 h. The protocol: The expression of caspase-3/7 in MCF-7 and MCF-12A cells was determined using the VybrantTM FAM™ Caspase-3 and Caspase-7 Assay Kit (Cat# V35118) (Thermo Fisher Scientific, Ireland). Cells were seeded at a density of 1 × 10^5 in T25 flasks and incubated in routine conditions for 24 h. […] Post-exposure, the cells were harvested for staining.
Flow cytometry data analysis was performed with the CytExpert package (Ver. 2.4) (Beckman Coulter, USA) and Microsoft^Ⓡ Excel (USA). The mean MFI and percentage cells were calculated using these packages, followed by one-way ANOVA analysis with post hoc Bonferroni correction using GraphPad Prism (Ver. 9.4) (GraphPad, USA).
The expression of caspase-3/7 was analysed in MCF-7 and MCF-12A cells using fluorescent labelled inhibitors of caspase (FLICA): FAM-DEVD-FMK. […] Following the apoptosis induction study, it was of interest to determine whether the complexes were stimulating the executioner caspases triggering the irreversible proteolytic degradation of cells, culminating in cell death. […] These three complexes were selected based on their structural similarities, while incorporating alternative metal centres.

Another data set deals with HT29, SW480 and SW620. Also on record: method as in Kellett et al. [2011]; Slator et al. [2017]. Conditions: ref Kellett et al. [2011], Slator et al. [2017]; cited from earlier work.
The test system of the next data set is Galleria Mellonella. The arrangement: method as in Kellett et al. [2011]; Slator et al. [2017]. Conditions: ref Kellett et al. [2011], Slator et al. [2017]; cited from earlier work.
A further data set concerns HaCaT cells. The arrangement: method as in Kellett et al. [2011]; Slator et al. [2017]. As to conditions: HaCaT vs colorectal cancer lines; ref Kellett et al. [2011]; Slator et al. [2017]; cited from earlier work.

The structures appear in SMILES notation.

With `N.N.[Cl][Pt][Cl]` [Cisplatin, reference compound], in data set [1], the “Caspase gene expression (caspase-9, -8, -3)” value is reported as “all caspases seen to be activated”; the “Pro-apoptotic gene expression (BID, BIM, BAD, BAX)” value was “pro-apoptotic BIM and BAD were upregulated”. Besides, in data set [2], the “Caspase gene expression (caspase-9, -8, -3)” value is reported as “all caspases seen to be activated”; the “Pro-apoptotic gene expression (BID, BIM, BAD, BAX)” value was “pro-apoptotic BIM and BAD were upregulated”. The “Expression of caspase-3/7 (% cells)” value in data set [3] is “lowest expression levels”.
With `O.O.O=C([O-])CCCCCCC(=O)[O-].[Mn+2].[Mn+2].c1cnc2c(c1)ccc1cccnc12.c1cnc2c(c1)ccc1cccnc12.c1cnc2c(c1)ccc1cccnc12.c1cnc2c(c1)ccc1cccnc12` [[Mn2(μ-oda)(phen)4(H2O)2]^2+], in the data set on HT29, SW480 and SW620, the “Cytotoxicity towards colorectal cancers” value is “nano-molar cytotoxicity”. In addition, the In vivo tolerance entry in the data set on Galleria Mellonella was “well-tolerated”. Also, the “Reduction in potency towards non-cancerous cells” value in the data set on HaCaT cells is on record as “almost tenfold reduction in potency”.

(Values after publication PMC12119673, “Apoptotic cell death induced by copper (II), manganese (II) and silver (I) complexes containing bridging dicarboxylate and 1,10-phenanthroline ligands: one of the multi-modes of anticancer activity?” (Biometals, 2025).)
